Common to all, as to assay type: cell-based
The subject of one data set is MCF10AT1. Nature of the data set: SRB cell viability, isogenic breast cell lines. Conditions: 0.39 μM, 72 hours. As to the method: (§1) FIG. 9 illustrates that CTR-17, CTR-20, CTR-21 and CTR-32 preferentially kill the fully malignant […] breast cancer cells over the pre-malignant MCF10AT1 and the non-malignant MCF-10A breast cells. Cells were treated with (A) CTR-17 at doses of 0.10, 0.39, 1.56 or 6.25 μM; (B) CTR-20 at doses of 0.10, 0.39, 1.56 or 6.25 μM; (C) CTR-21 at doses of 7.81, 15.63, 31.25, 62.5, 125 or 250 nM; or (D) CTR-32 at doses of 7.81, 15.63, 31.25, 62.5, 125 or 250 nM for 72 hours. Cell viability was determined using an SRB assay.
(§2) All of the cell lines used were purchased from ATCC and cultured in RPMI-1640 supplemented with 10% fetal bovine serum and antibiotics (100 units penicillin/100 μg/ml streptomycin), unless stated otherwise. 1845B5 and MCF-10A non-cancer breast cell lines were cultured in DME/F12 medium supplemented with 10% fetal bovine serum, antibiotics and growth factors. KB-3-1 is a human epidermal carcinoma cell line and KB-C-2 is its isogenic multidrug-resistant cell line with over-expressing ABCB1/P-gp. […] The human small cell lung carcinoma H69 cell line and its multidrug-resistant MRP1-overexpressing isogenic H69AR cell line were purchased from ATCC. The H69AR cell line was established in the presence of increasing concentrations of Adriamycin (doxorubicin). H69 cells grow as large multi-cell aggregates, making it difficult to accurately count cell numbers. Therefore, the cytotoxicity results obtained from H69AR cells were compared to SW1271, a small cell lung carcinoma cell line without a multidrug-resistant phenotype. The IL-6 dependent bortezomib-resistant ANBL6-BR cell line was further supplemented with 1 ng/ml of IL-6. The MCF10AT1 and MCF10CA1a cell lines are isogenic to the MCF10A cell line, and obtained from Dr. Valerie Weaver at the Center for Bioengineering and Tissue Regeneration, UCSF, CA, USA. MCF10AT1 is a premalignant cell line generated by transforming MCF10A with c-Ha-Ras; and MCF10CA1a was isolated by selecting malignant cells after MCF10AT1 cells were engrafted into mice (Liu & Lin 2004; Marella et al. 2009). The MCF10AT1 and MCF10CA1a cells were cultured in DMEM supplemented with 10% FBS (volume/volume). MDA-MB231TaxR cell line was generated in house by culturing MDA-MB231 cells in gradually increasing doses of paclitaxel over one-year period, and finally maintained at 100 nM paclitaxel. The drug-resistant cells were cultured in the absence of drug for at least one passage before carrying out experiments. All cells were maintained in a humidified incubator at 37° C. (5% CO2/95% air). Cell line authentication was performed using short tandem repeat (STR) profiling.
(§3) For (anti)proliferation assays, 4,000-5,000 cells/well of the 96-well clustered dish were incubated for 16 hours, as described previously (Hu et al., 2008; Skehan et al., 1990). After 16 hours, culture medium was replaced with fresh medium containing different dilutions of test compounds dissolved in DMSO. Some wells were treated with 100 μl of 10% trichloroacetic acid (TCA) as a negative control and sham (medium with dimethyl sulfoxide; DMSO) treated cells were used as a positive control. After 72 hours post-incubation, medium was removed and cells were fixed with 10% TCA at 4° C. for 1 hour. TCA was removed and cells were washed with cold tap water, and plate was air-dried, followed by addition of 50 μl of 0.4% SRB staining solution to each well. After 30 minutes incubation, SRB staining solution was removed. Cells were washed with 1% acetic acid solution, and then washed with tap water to remove unbound staining solution, followed by air-drying. 200 μl of 10 mM (pH10.5) trizma base buffer was added to each well to solubilise macromolecules. SRB stained macromolecules were determined at a 540 nm wavelength using an automated plate reader (Synergy H4 Hybrid Multi-Mode Microplate Reader, BioTek, Winooski, Vt.). Cell growth (inhibition) was calculated by the following formula: […]

The subject of another data set is HeLa. Nature of the data set: Immunofluorescent staining: centrosomes and chromosome segregation. Conditions: for ACS (abnormal chromosome segregation) / Monopolar centrosome: 3 μM. How it is done: (§4) Cells on coverslips placed on the bottom of 35 mm tissue culture plates or 6-well clustered dishes were treated for 12-24 hours with the CTR compounds to be tested. Subsequently, the cells were fixed with 100% methanol for 15 minutes and washed with 1×PBS three times. Cells were then “blocked” with 3% BSA or 1% (v/v) FBS plus 1×PBST (1×PBS buffer containing 0.1% (v/v) Triton X-100 or 0.2% Tween 20), and incubated overnight at 4° C. with primary antibodies, with gentle agitation. Unbound primary antibodies were washed off with PBST, and a secondary antibody was added for 1 hour in the dark. Secondary antibodies were conjugated to Alexa 488 or 568. DNA was counterstained with DRAQ5 or DAPI. Subsequently, coverslips were washed three times with 1×PBST for 10 minutes each, followed by mounting them onto slides with 90% glycerol in 1×PBS. Each slide was visualized with a Carl Zeiss 510 Meta laser scanning microscope or an Axioscope. Image analysis was done with an LSM image examiner equipped with the microscopes (Carl Zeiss, Toronto, ON, Canada).
(§5) The cancer-specific increase of mitotic cells in response to CTR-17 was correlated with the accumulation of cells with monopolar centrosomes and abnormal chromosome alignment/segregation (FIG. 11, Table 5). Cells were either sham-treated or treated with 3.0 μM CTR-17 for 12 hours or 24 hours, followed by analyses of cell cycle progression, centrosome abnormalities, and chromosome alignment/segregation. […] The mitotic index was determined by fluorescence microscopic analysis of at least 200 cells for each cell type, and data was expressed as percentage mean±S.E.M. of at least two independent experiments.
Asynchronously growing cells were treated with 1 μM CTR-20 for 24 hours, followed by examining cells arrested in mitosis. The percentage of mitotic cells was calculated based on the examination of at least 250-400 cells. Cells treated with 1 μM CTR-20 for 24 hours on coverslips were fixed with ice-cold methanol, immunostained with an α-tubulin antibody, and then counterstained DNA with DRAQ5 prior to observing by florescent microscopy (Table 6). […] Similarly, cells treated with 1 μM CTR-20 accumulated monopolar centrosomes and defective chromosomal alignment and segregation in a cancer-specific manner.

The next data set concerns HEK293T. The description is as above. Conditions: 3 μM. How it is done: as §4, §5
Data set [1] can be described thus: SRB cell viability, isogenic breast cell lines. Conditions: human, MCF10AT1 cells (pre-malignant breast cells), 31.25 nM. How it is done:
as §1, §2, §3

By viability is commonly meant a per cent measure of how many cells are alive, often set against a control.

Regarding `COc1ccc2[nH]c(=O)c(/C=C/C(=O)c3ccccc3OC)cc2c1` [CTR-20, (E)-6-Methoxy-3-(3-(2-methoxyphenyl)-3-oxoprop-1-enyl) quinolin-2(1H)-one], the Cell survival rate in the data set with MCF10AT1 is 20%. Also, in the data set on HeLa (1 μM, 24 hours), the “ACA/S (%) (abnormal chromosome alignment and segregation)” value amounted to 34.97 ± 1.96%; the “Monopolar (%)” value is given as 48.13 ± 3.34%.

Regarding `COc1ccccc1C(=O)/C=C/c1cc2ccccc2[nH]c1=O` [CTR-17, (E)-3-(3-(2-Methoxyphenyl)-3-oxoprop-1-enyl)quinolin-2(1H)-one], the Cell survival rate in the data set on MCF10AT1 was 60%. Also, the “ACS (abnormal chromosome segregation)” value in the data set with HeLa (12 h post-treatment) is 20.0 ± 4.5% of total mitotic cells; in the data set with HeLa (24 h post-treatment), 0.0 ± 0.0% of total mitotic cells; in the data set on HEK293T (12 h post-treatment), 48.2 ± 10.1% of total mitotic cells; with HEK293T (24 h post-treatment) it was 0.1 ± 0.0% of total mitotic cells. Also, the Monopolar centrosome with HeLa (12 h post-treatment) is listed as 80.0 ± 4.5% of total mitotic cells; in the data set on HeLa (24 h post-treatment), 100.0 ± 0.0% of total mitotic cells; with HEK293T (12 h post-treatment) it was 50.5 ± 10.1% of total mitotic cells; in the data set on HEK293T (24 h post-treatment), 93.2 ± 3.4% of total mitotic cells.

Regarding `CCOc1ccccc1C(=O)/C=C/c1cc2ccccc2[nH]c1=O` [CTR-32, (E)-3-(3-(2-ethoxyphenyl)-3-oxoprop-1-enyl)quinolin-2(1H)-one], in data set [1], the viability at 72 h, 0.03125 µM turned out to be 70%.

In the case of `COc1ccccc1C(=O)/C=C/c1cc2cccc(OC)c2[nH]c1=O` [CTR-21, (E)-8-methoxy-3-(3-(2-methoxyphenyl)-3-oxoprop-1-enyl) quinolin-2(1H)-one], the viability at 72 h, 0.03125 µM in data set [1] was 24%.

These data come from patent US20180344725A1, “QUINOLONE CHALCONE COMPOUNDS AND USES THEREOF” (priority 2015, published 2018).
